From US20260103465A1, “GLYCOGEN SYNTHASE KINASE 3 INHIBITORS AND USES THEREOF” (The Broad Institute, Inc., priority 2023, published 2026) come the findings set out here.

Like-named read-outs stand apart in the source and are kept apart here.

The target of assay [1] is T1, GSK3a (GST-full length GSK3a) (Homo sapiens, UniProt P49840).
T1 construct: GST-full length GSK3a [SignalChem G08-10G]; purchased SignalChem G08-10G
Description: GSK3a TR-FRET kinase inhibition assay. It counts as biochemical. The essentials:
(§1)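 GST-tagged full-length human kinase (1 nM), pre-incubated 30 min with compound, then reacted 100 min at ambient temperature at pH 7.5 with 200 nM biotinylated phospho-S645 glycogen synthase 631–650 peptide and ATP at 2 μM–1 mM. After EDTA quench, Tb-pSer641 antibody/streptavidin-d2 TR-FRET 665/615 ratio fitted for IC50.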
(Time-resolved FRET reads energy transfer from a long-lived donor to a nearby acceptor.)

Assay [2] has as its target T2, GSK3b (GST-full length GSK3b) (Homo sapiens, UniProt P49841).
T2 construct: GST-full length GSK3b: [SignalChem G08-9G]; purchased SignalChem G08-9G
Put plainly: GSK3b TR-FRET kinase inhibition assay. It counts as biochemical. The essentials: as §1

Setting [3] is: 4 μM ATP, read-out: GSK3α TR-FRET 4 μM ATP GMean IC50.
Where [4] appears, read: 2 μM ATP, read-out: GSK3β TR-FRET 2 μM ATP GMean IC50.
[5] abbreviates: 1 mM ATP, Table 5, read-out: GSK3α TR-FRET 1 mM ATP Average IC50.
The mark [6] stands for this setting: 1 mM ATP, Table 5, read-out: GSK3β TR-FRET 1 mM ATP Average IC50.
The mark [7] stands for this setting: 100 μM ATP, read-out: GSK3a 100 μM ATP Average IC50.
[8] abbreviates: 1 mM ATP, Table 3, read-out: GSK3a TR-FRET 1 mM ATP Average IC50.
The mark [9] stands for this setting: 100 μM ATP, read-out: GSK3b 100 μM ATP Average IC50.
[10] abbreviates: 1 mM ATP, Table 3, read-out: GSK3b TR-FRET 1 mM ATP Average IC50.

T1 sequence (P49840 whole entry): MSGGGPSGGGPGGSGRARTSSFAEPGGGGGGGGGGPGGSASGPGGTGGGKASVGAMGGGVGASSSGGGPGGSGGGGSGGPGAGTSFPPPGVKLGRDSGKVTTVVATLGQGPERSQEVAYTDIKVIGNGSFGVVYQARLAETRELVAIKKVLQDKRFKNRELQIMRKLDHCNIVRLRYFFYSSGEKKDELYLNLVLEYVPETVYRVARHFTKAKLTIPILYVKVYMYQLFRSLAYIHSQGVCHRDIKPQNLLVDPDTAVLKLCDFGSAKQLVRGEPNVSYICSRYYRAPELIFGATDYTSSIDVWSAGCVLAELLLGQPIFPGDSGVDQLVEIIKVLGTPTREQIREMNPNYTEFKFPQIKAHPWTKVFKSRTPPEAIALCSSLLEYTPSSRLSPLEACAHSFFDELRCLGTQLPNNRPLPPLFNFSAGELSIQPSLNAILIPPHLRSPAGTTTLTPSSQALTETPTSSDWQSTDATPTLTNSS
T2 sequence (P49841 whole entry): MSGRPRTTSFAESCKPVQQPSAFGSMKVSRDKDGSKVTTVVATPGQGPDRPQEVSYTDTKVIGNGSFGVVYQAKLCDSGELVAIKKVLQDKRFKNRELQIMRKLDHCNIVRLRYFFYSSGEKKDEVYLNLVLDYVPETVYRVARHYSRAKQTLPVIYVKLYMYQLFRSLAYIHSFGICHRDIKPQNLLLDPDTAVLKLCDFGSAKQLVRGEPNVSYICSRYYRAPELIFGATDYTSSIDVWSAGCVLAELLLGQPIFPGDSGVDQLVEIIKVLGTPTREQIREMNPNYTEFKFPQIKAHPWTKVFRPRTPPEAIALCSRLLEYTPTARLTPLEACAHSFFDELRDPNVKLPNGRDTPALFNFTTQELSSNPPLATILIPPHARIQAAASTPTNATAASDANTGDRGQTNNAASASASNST

A word on the IC50: it is the midpoint of a concentration-inhibition curve. With `CCC1(c2cccc(-c3cc(C)nn3C)c2)C2=C(CC(C)(C)CC2=O)Nc2ncc(F)cc21` (single isomer, unassigned) [Compound 1033A], the figures for the IC50 in assay [1] (setting [3]) and in assay [2] (setting [4]) were 1 to 5 µM and over 5 µM, respectively.

On to `CN(C)c1cnc2c(c1C#N)C(C)(c1ccccc1)C1=C(CC(C)(C)CC1=O)N2` (single isomer, unassigned) [624A], for which the IC50 in assay [1] (setting [5]) and in assay [2] (setting [6]) was 5 to 20 µM in each case.

As for `CCC1(c2cccc(-c3ccnc4c3CCCC4)c2)C2=C(CC(C)(C)CC2=O)Nc2ncc(F)cc21` (single isomer, unassigned) [Compound 165A], the IC50 in assay [1] (setting [3]) was 1 to 5 µM; in assay [1] (10 μM ATP, read-out: GSK3a 10 μM ATP Average IC50), at most 0.1 µM; in assay [1] (setting [7]), at most 0.1 µM; in assay [1] (setting [8]), 0.1 to 1 µM; in assay [2] (setting [4]), over 5 µM; in assay [2] (10 μM ATP, read-out: GSK3b 10 μM ATP Average IC50), at most 0.1 µM. The IC50 was at most 0.1 µM in assay [2] (setting [9]) and 0.1 to 1 µM in assay [2] (setting [10]).

In the case of `CC1(C)CC(=O)C2=C(C1)Nc1ncc(F)c(C(F)(F)F)c1C2(C)c1cccc(S(C)(=O)=O)c1` (single isomer, unassigned) [Compound 166B], the IC50 in assay [1] (setting [8]) and in assay [2] (setting [10]) was 5 to 20 µM each time.

Consider `CCC1(c2ccccc2)C2=C(CC(C)(C)NC2=O)Nc2ncccc21` (single isomer, unassigned) [Compound 1002A], for which the IC50 in assay [1] (setting [3]) and in assay [2] (setting [4]) was over 5 µM throughout.

As for `CC1(C)CC(=O)C2=C(C1)Nc1ncc(I)c(Br)c1C2(C)c1ccccc1` (single isomer, unassigned) [657B], the IC50 in assay [1] (setting [5]) fell in the range of 5 to 20 µM; in assay [2] (setting [6]), 1 to 5 µM.

As for `CC1(C)CC(=O)C2=C(C1)Nc1ncc(C3CC3)c(C#N)c1C2(C)c1ccccc1` (single isomer, unassigned) [619A], the IC50 in assay [1] (setting [5]) and in assay [2] (setting [6]) was 5 to 20 µM in each case.

In the case of `CC1(C)CC(=O)C2=C(C1)Nc1ncc(Br)c(Cl)c1C2(C)c1ccccc1` (single isomer, unassigned) [Compound 145A], the IC50 in assay [1] (setting [8]) and in assay [2] (setting [10]) was 1 to 5 µM throughout.

Take `CC1(C)CC(=O)C2=C(C1)Nc1nccc(C(F)(F)F)c1C2(C)c1ccccc1` (single isomer, unassigned) [Compound 127B]: the IC50 in assay [1] (setting [8]) and in assay [2] (setting [10]) was 5 to 20 µM throughout.

For `CC1(C)CC(=O)C2=C(Nc3ncc(F)c(C#N)c3[C@]2(C)c2ccccc2)[C@@H]1F` (single isomer, unassigned) [Compound 617C], the IC50 in assay [1] (setting [5]) and in assay [2] (setting [6]) was 5 to 20 µM throughout.

Take `CC1(C)CC(=O)C2=C(C1)Nc1ncc3ccccc3c1C2(C)c1ccccc1` (single isomer, unassigned) [606A]: the IC50 in assay [1] (setting [5]) and in assay [2] (setting [6]) was 5 to 20 µM in each case.

In the case of `CCC1(c2cccc(C3CCC3)c2)C2=C(CC(C)(C)CC2=O)Nc2ncccc21` (racemic) [Compound 1012], the half-inhibitory concentration (IC50) in assay [1] (setting [3]) and in assay [2] (setting [4]) was at most 0.1 µM throughout.

Consider `Cc1cnc2c(c1C)C(C)(c1ccccc1)C1=C(CC(C)(C)CC1=O)N2` (single isomer, unassigned) [601A], for which the IC50 in assay [1] (setting [5]) and in assay [2] (setting [6]) was 1 to 5 µM throughout.

Regarding `C=C(C)c1cnc2c(c1C#N)C(C)(c1ccccc1)C1=C(CC(C)(C)CC1=O)N2` (single isomer, unassigned) [620B], the IC50 in assay [1] (setting [5]) and in assay [2] (setting [6]) was 5 to 20 µM throughout.

For `CC1(C)CC(=O)C2=C(C1)Nc1ncc(F)c(C(F)(F)F)c1C2(C)c1ccccc1` (single isomer, unassigned) [Compound 135A], the IC50 in assay [1] (setting [8]) and in assay [2] (setting [10]) was 0.1 to 1 µM in each case.

Take `CC(C)Oc1cccc(C2(C)C3=C(CC(C)(C)CC3=O)Nc3ncc(C(F)F)c(C#N)c32)c1` (single isomer, unassigned) [650B]: the IC50 in assay [1] (setting [5]) and in assay [2] (setting [6]) was 0.1 to 1 µM in each case.

Consider `COc1cncc(F)c1-c1cccc(C2(C)C3=C(CC(C)(C)CC3=O)Nc3ncc(C(F)(F)F)cc32)c1` (single isomer, unassigned) [Compound 174B], for which the IC50 in assay [1] (setting [8]) was in the range of 1 to 5 µM; in assay [2] (setting [10]) it was 0.1 to 1 µM.

Consider `CC1(C)CC(=O)C2=C(C1)Nc1ncccc1C2(C)c1cccc(N(CC2CC2)c2ncccn2)c1` (single isomer, unassigned) [652A], for which the IC50 in assay [1] (setting [5]) and in assay [2] (setting [6]) was 5 to 20 µM each time.

For `CCC1(c2cccc(-c3ccncc3OC)c2)C2=C(CC(C)(C)CC2=O)Nc2ncc(F)cc21` (single isomer, unassigned) [Compound 1037A], the IC50 in assay [1] (setting [3]) and in assay [2] (setting [4]) was 1 to 5 µM each time.

As for `Cc1c(F)cnc2c1C(C)(c1cccc(S(C)(=O)=O)c1)C1=C(CC(C)(C)CC1=O)N2` (single isomer, unassigned) [Compound 144B], the IC50 in assay [1] (setting [8]) and in assay [2] (setting [10]) was 5 to 20 µM each time.

As for `CC1(C)CC(=O)C2=C(C1)Nc1ncc(F)cc1C2(C)c1cccc(S(C)(=O)=O)c1` (single isomer, unassigned) [Compound 139B], the IC50 in assay [1] (setting [8]) and in assay [2] (setting [10]) was 5 to 20 µM each time.

As for `CC1(C)CC(=O)C2=C(C1)Nc1ncc(C(F)(F)F)c(F)c1C2(C)c1ccccc1` (single isomer, unassigned) [Compound 136B], the IC50 in assay [1] (setting [8]) and in assay [2] (setting [10]) was 5 to 20 µM throughout.

As for `CC1(C)CC(=O)C2=C(C1)Nc1ncc(F)c(C3CC3)c1C2(C)c1cccc(S(C)(=O)=O)c1` (single isomer, unassigned) [Compound 153A], the IC50 in assay [1] (setting [8]) and in assay [2] (setting [10]) was at most 0.1 µM each time.

On to `CC1(C)CC(=O)C2=C(C1)Nc1nccc(CC(F)(F)F)c1C2(C)c1ccccc1` (single isomer, unassigned) [Compound 132A], for which the IC50 in assay [1] (setting [8]) and in assay [2] (setting [10]) was 1 to 5 µM each time.

With `CCC1(c2cccc(-c3ccnc(C)c3C)c2)C2=C(CC(C)(C)CC2=O)Nc2ncccc21` (single isomer, unassigned) [147 A], the IC50 in assay [1] (setting [3]) was 1 to 5 µM; in assay [2] (setting [4]), over 5 µM.

`CC(C)(C)Cn1nccc1-c1cccc(C2(C)C3=C(CC(C)(C)CC3=O)Nc3ncc(F)cc32)c1` (single isomer, unassigned) [Compound 160A]: the IC50 in assay [1] (setting [8]) and in assay [2] (setting [10]) was 0.1 to 1 µM each time.

As for `CC1(C)CC(=O)C2=C(C1)Nc1ncc(C3CC3)cc1C2(C)c1ccccc1` (single isomer, unassigned) [Compound 117A], the IC50 in assay [1] (setting [7]) was in the range of 0.1 to 1 µM; in assay [1] (setting [8]), 5 to 20 µM; in assay [2] (setting [9]), 0.1 to 1 µM; in assay [2] (setting [10]), 1 to 5 µM.

For `CCC1(c2ccccc2)C2=C(CC3(CCC3)CC2=O)Nc2ncccc21` (single isomer, unassigned) [110 A], the IC50 in assay [1] (setting [3]) and in assay [2] (setting [4]) was at most 0.1 µM each time.

`CC1(C)CC(=O)C2=C(C1)Nc1ncccc1C2(C)c1cccc(N(CC2CC2)c2ncccn2)c1` (single isomer, unassigned) [652B]: the IC50 in assay [1] (setting [5]) is at most 0.1 µM; in assay [2] (setting [6]), 5 to 20 µM.

As for `CCC1(c2cccc(-c3ccncc3C)c2)C2=C(CC(C)(C)CC2=O)Nc2ncc(F)cc21` (single isomer, unassigned) [Compound 1031A], the IC50 in assay [1] (setting [3]) and in assay [2] (setting [4]) was 0.1 to 1 µM throughout.

As for `CC1(C)CC2=C(C(=O)[C@H]1F)[C@](C)(c1ccccc1)c1c(ncc(F)c1C#N)N2` (single isomer, unassigned) [Compound 616D], the IC50 in assay [1] (setting [5]) and in assay [2] (setting [6]) was 5 to 20 µM throughout.

For `C=Cc1c(C(F)(F)F)cnc2c1C(C)(c1ccccc1)C1=C(CC(C)(C)CC1=O)N2` (single isomer, unassigned) [636A], the values for the IC50 in assay [1] (setting [5]) and in assay [2] (setting [6]) were 1 to 5 µM and 0.1 to 1 µM, respectively.

Regarding `CCC1(c2cccc(-c3ccnn3C)c2)C2=C(CC(C)(C)CC2=O)Nc2ncc(F)cc21` (single isomer, unassigned) [Compound 1025B], the IC50 was 0.1 to 1 µM in assay [1] (setting [3]) and over 5 µM in assay [2] (setting [4]).

On to `COc1cncc(F)c1-c1cccc(C2(C)C3=C(CC(C)(C)CC3=O)Nc3ncc(C4CC4)cc32)c1` (single isomer, unassigned) [Compound 167B], for which the IC50 in assay [1] (setting [8]) and in assay [2] (setting [10]) was 1 to 5 µM in each case.

Consider `CCC1(c2cccc(-c3ccncc3C)c2)C2=C(CC(C)(C)CC2=O)Nc2ncccc21` (single isomer, unassigned) [Compound 1020A], for which the results for the 50% inhibitory concentration (IC50) in assay [1] (setting [3]) and in assay [2] (setting [4]) were 1 to 5 µM and over 5 µM, respectively.

Take `C=Cc1cnc2c(c1C#N)C(C)(c1ccccc1)C1=C(CC(C)(C)CC1=O)N2` (single isomer, unassigned) [607B]: the IC50 in assay [1] (setting [5]) and in assay [2] (setting [6]) was 5 to 20 µM throughout.

Regarding `CC1(C)CC2=C(C(=O)[C@H]1F)[C@@](C)(c1ccccc1)c1c(ncc(F)c1C#N)N2` (single isomer, unassigned) [Compound 616C], the 50% inhibitory concentration (IC50) in assay [1] (setting [5]) and in assay [2] (setting [6]) was 5 to 20 µM in each case.

Turning to `Cc1cnc2c(c1C#N)C(C)(c1ccccc1)C1=C(CC(C)(C)CC1=O)N2` (single isomer, unassigned) [603B], the IC50 in assay [1] (setting [5]) and in assay [2] (setting [6]) was 0.1 to 1 µM throughout.

As for `CCC1(c2ccccc2)C2=C(CC(C)(C)CC2=O)Nc2ncccc21` (racemic) [Compound 102], the IC50 in assay [1] (setting [3]) and in assay [2] (setting [4]) was 0.1 to 1 µM throughout.
